Columns and labels:
[1] = target: T1, B1R receptor of rats (rB1R) (Rattus norvegicus, UniProt P97583); assay: FLIPR Ca2+ assay (Fluo-4) on CHO K1 cells stably transfected with the B1R gene of rats; assay type: cell-based; conditions: CHO-K1; test substance 10 μM; agonist Des-Arg9-bradykinin 100 nM; % inhibition compared to the maximum achievable inhibition
T1 construct: host or cells: CHO K1 cells
T1 sequence (P97583 1-337): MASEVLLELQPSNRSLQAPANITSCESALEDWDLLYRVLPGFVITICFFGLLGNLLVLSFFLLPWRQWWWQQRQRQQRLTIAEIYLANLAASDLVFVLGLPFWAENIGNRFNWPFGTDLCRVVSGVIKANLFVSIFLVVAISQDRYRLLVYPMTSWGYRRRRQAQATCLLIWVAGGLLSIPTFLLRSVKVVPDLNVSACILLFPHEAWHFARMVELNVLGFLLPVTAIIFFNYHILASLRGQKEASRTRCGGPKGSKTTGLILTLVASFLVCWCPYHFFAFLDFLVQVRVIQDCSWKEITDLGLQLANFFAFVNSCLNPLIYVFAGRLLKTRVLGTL
Procedure: (§1) The agonistic or antagonistic action of compounds can be quantified on the bradykinin 1 receptor (B1R) of humans and rats with ectopically expressing cell lines (CHO K1 cells) and with the aid of a Ca^2+-sensitive dye (Fluo-4) in the fluorescent imaging plate reader (FLIPR). The figure in percent activation refers to the Ca^2+ signal after addition of Lys-Des-Arg^9-bradykinin (0.5 nM) and Des-Arg^9-bradykinin (100 nM). Antagonists result in a suppression of the Ca^2+ inflow after the addition of the agonist. Percent inhibition values are given in comparison to the maximum achievable inhibition. The compounds according to the invention act, for example, on the B1R which is implicated in various disease states. This means that the compounds of the invention are useful as pharmaceutically active substances in medicaments for the treatment and/or inhibition of such disease states.
(§2) The agonistic or antagonistic action of substances can be determined on the bradykinin 1 receptor (B1R) of humans and rats by means of the following assay. According to this assay the Ca^2+ inflow through the channel is quantified by means of a Ca^2+-sensitive dye (Fluo-4 type, Molecular Probes Europe BV, Leiden, Netherlands), in a Fluorescent Imaging Plate Reader (FLIPR, Molecular Devices, Sunnyvale, USA).
(§3) Chinese hamster ovary cells (CHO K1 cells) are used, which are stably transfected with the human B1R gene (hB1R cells, Euroscreen s.a., Gosselies, Belgium), or with the B1R gene of rats (rB1R cells, Axxam, Milan, Italy). For functional investigations these cells are plated out on black 96-well plates with a clear floor (BD Biosciences, Heidelberg, Germany) in a density of 20,000/25,000 cells/well. The cells are incubated overnight with 10 vol. % FBS (foetal bovine serum, Gibco Invitrogen GmbH, Karlsruhe, Germany) at 37° C. and 5% CO2 in a culture medium (hB1R cells: Nutrient Mixture Ham's F12, Gibco Invitrogen GmbH, Karlsruhe, Germany; rB1R cells: D-MEM/F12, Gibco Invitrogen GmbH, Karlsruhe, Germany). The following day the cells are charged for 60 minutes at 37° C. with 2.13 μM Fluo-4 (Molecular Probes Europe BV, Leiden, Netherlands) in HBSS buffer (Hank's buffered saline solution, Gibco Invitrogen GmbH, Karlsruhe, Germany) together with […] (Sigma-Aldrich, Taufkirchen, Germany) and 10 mM HEPES (Sigma-Aldrich, Taufkirchen, Germany).
(§4) The plates are then washed twice with HBSS buffer and HBSS buffer is added which additionally contains 0.1% BSA (bovine serum albumin; Sigma-Aldrich, Taufkirchen, Germany), 5.6 mM glucose and 0.05% gelatin (Merck KGaA, Darmstadt, Germany). After further incubation for 20 minutes at room temperature the plates are used for the Ca^2+ measurement in the FLIPR. The Ca^2+-dependent fluorescence is measured both before and after the addition of substances (λex=488 nm, λem=540 nm). The quantification is carried out by measuring the highest fluorescence intensity (FC, fluorescence counts) over time.
(§5) The FLIPR protocol consists of two substance additions. First, test substances (10 μM) are pipetted onto the cells and the Ca^2+ inflow is compared with the control (hB1R: Lys-Des-Arg9-bradykinin 0.5 nM; rB1R: Des-Arg9-bradykinin 100 nM). This gives the result in percent activation referred to the Ca^2+ signal after addition of Lys-Des-Arg9-bradykinin (0.5 nM), bzw. Des-Arg9-bradykinin (100 nM). After 10 minutes' incubation 0.5 nM Lys-Des-Arg9-bradykinin (hB1R) and 100 nM Des-Arg^9-bradykinin (rB1R) are applied and the inflow of Ca^2+ is likewise determined. Antagonists lead to a suppression of the Ca^2+ inflow. The percent inhibition compared to the maximum achievable inhibition is calculated. The compounds show a good activity on both human and rat receptors.
(§6) The agonistic and antagonistic action of the compounds according to the invention on the bradykinin 1 receptor (B1R) of humans and rats were determined as described above. Antagonists lead to a suppression of the Ca^2+ inflow. […]

[2] = target: T2, human B1R receptor (hB1R) (Homo sapiens, UniProt P46663); assay: FLIPR Ca2+ assay (Fluo-4) on CHO K1 cells stably transfected with the human B1R gene; assay type: cell-based; conditions: CHO-K1; test substance 10 μM; agonist Lys-Des-Arg9-bradykinin 0.5 nM; % inhibition compared to the maximum achievable inhibition
T2 construct: host or cells: CHO K1 cells
T2 sequence (P46663 1-353): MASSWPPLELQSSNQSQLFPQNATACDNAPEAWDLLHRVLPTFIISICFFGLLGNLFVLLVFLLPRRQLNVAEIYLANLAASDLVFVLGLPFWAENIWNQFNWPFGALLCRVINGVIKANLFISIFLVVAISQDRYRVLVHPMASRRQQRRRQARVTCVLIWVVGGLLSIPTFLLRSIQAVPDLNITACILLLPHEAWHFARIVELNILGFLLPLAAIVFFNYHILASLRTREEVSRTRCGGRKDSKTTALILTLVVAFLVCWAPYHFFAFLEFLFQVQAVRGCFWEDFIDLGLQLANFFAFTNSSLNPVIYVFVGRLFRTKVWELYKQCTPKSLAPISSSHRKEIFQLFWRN
Procedure: as §1, §2, §3, §4, §5, §6

inhibition at 10 µM [1] [%]	inhibition at 10 µM [2] [%]	SMILES
92	48	CN1CCN(CCCc2ccc3n2CCN(C(=O)COCC2CCc4ccccc4N2S(=O)(=O)c2ccc(Cl)c(Cl)c2)C3)CC1 (centres unmarked) [(16), 2-((1-(3,4-dichlorophenylsulfonyl)-1,2,3,4-tetrahydroquinolin-2-yl)methoxy)-1-(6-(3-(4-methylpiperazin-1-yl)propyl)-3,4-dihydropyrrolo[1,2-a]pyrazin-2(1H)-yl)ethanone]
75	50	O=C(CC1CCCCN1S(=O)(=O)c1cccc(C(F)(F)F)c1)N1CCn2c(CCCN3CCCC3)ccc2C1 (centres unmarked) [(17), 1-(6-(3-(pyrrolidin-1-yl)propyl)-3,4-dihydropyrrolo[1,2-a]pyrazin-2(1H)-yl)-2-(1-(3-(trifluoromethyl)phenylsulfonyl)piperidin-2-yl)ethanone]
99	90	Cc1cc(S(=O)(=O)N2CCCCC2CCC(=O)N2CCn3c(CCCN4CCCC4)ccc3C2)c(C)cc1Cl (centres unmarked) [(18), 3-(1-(4-chloro-2,5-dimethylphenylsulfonyl)piperidin-2-yl)-1-(6-(3-(pyrrolidin-1-yl)propyl)-3,4-dihydropyrrolo[1,2-a]pyrazin-2(1H)-yl)propan-1-one]
96	102	COc1cc(C)c(S(=O)(=O)N2CCCCC2COCC(=O)N2CCn3cccc3C2C(C)(C)C)c(C)c1 (centres unmarked) [(19), 1-(1-tert-butyl-3,4-dihydropyrrolo[1,2-a]pyrazin-2(1H)-yl)-2-((1-(4-methoxy-2,6-dimethyl-phenylsulfonyl)piperidin-2-yl)methoxy)ethanone]
99	101	COc1cc(C)c(S(=O)(=O)N2CCCCC2COCC(=O)N2CCn3cccc3C2C)c(C)c1 (centres unmarked) [(20), 2-((1-(4-methoxy-2,6-dimethylphenylsulfonyl)piperidin-2-yl)methoxy)-1-(1-methyl-3,4-dihydropyrrolo[1,2-a]pyrazin-2(1H)-yl)ethanone]
98	100	COc1cc(C)c(S(=O)(=O)N2CCCCC2COCC(=O)N2CCn3cccc3C2c2cccnc2)c(C)c1 (centres unmarked) [(21), 2-((1-(4-methoxy-2,6-dimethylphenylsulfonyl)piperidin-2-yl)methoxy)-1-(1-(pyridin-3-yl)-3,4-dihydropyrrolo[1,2-a]pyrazin-2(1H)-yl)ethanone]
99	102	COc1cc(C)c(S(=O)(=O)N2CCCCC2COCC(=O)N2CCn3cccc3C2c2ccc(Cl)nc2)c(C)c1 (centres unmarked) [(22), 1-(1-(6-chloropyridin-3-yl)-3,4-dihydropyrrolo[1,2-a]pyrazin-2(1H)-yl)-2-((1-(4-methoxy-2,6-dimethylphenylsulfonyl)piperidin-2-yl)methoxy)ethanone]
99	70	COc1cc(C)c(S(=O)(=O)N2CCCCC2COCC(=O)N2CCn3ccnc3C2)c(C)c1 (centres unmarked) [(23), 1-(5,6-dihydroimidazo[1,2-a]pyrazin-7(8H)-yl)-2-((1-(4-methoxy-2,6-dimethyl-phenylsulfonyl)piperidin-2-yl)methoxy)ethanone]
98	101	COc1ccc(C2c3cccn3CCN2C(=O)COCC2CCCCN2S(=O)(=O)c2c(C)cc(OC)cc2C)cc1 (centres unmarked) [(24), 2-((1-(4-methoxy-2,6-dimethylphenylsulfonyl)piperidin-2-yl)methoxy)-1-(1-(4-methoxyphenyl)-3,4-dihydropyrrolo[1,2-a]pyrazin-2(1H)-yl)ethanone]
97	99	COc1cc(C)c(S(=O)(=O)N2CCCCC2COCC(=O)N2CCn3cccc3C2c2ccccc2)c(C)c1 (centres unmarked) [(25), 2-((1-(4-methoxy-2,6-dimethylphenylsulfonyl)piperidin-2-yl)methoxy)-1-(1-phenyl-3,4-dihydropyrrolo[1,2-a]pyrazin-2(1H)-yl)ethanone]
98	86	COc1cc(C)c(S(=O)(=O)N2CCCCC2COCC(=O)N2CCn3cccc3C2c2ccc(F)c(F)c2)c(C)c1 (centres unmarked) [(26), 1-(1-(3,4-difluorophenyl)-3,4-dihydropyrrolo[1,2-a]pyrazin-2(1H)-yl)-2-((1-(4-methoxy-2,6-dimethylphenylsulfonyl)piperidin-2-yl)methoxy)ethanone]
97	66	COc1cc(C)c(S(=O)(=O)N2CCCCC2COCC(=O)N2CCn3cccc3C2c2ccc(C)c(C)c2)c(C)c1 (centres unmarked) [(27), 1-(1-(3,4-dimethylphenyl)-3,4-dihydropyrrolo[1,2-a]pyrazin-2(1H)-yl)-2-((1-(4-methoxy-2,6-dimethylphenylsulfonyl)piperidin-2-yl)methoxy)ethanone]
98	98	COc1cc(C)c(S(=O)(=O)N2CCCCC2COCC(=O)N2CCn3cccc3C2c2cccc(F)c2)c(C)c1 (centres unmarked) [(28), 1-(1-(3-fluorophenyl)-3,4-dihydropyrrolo[1,2-a]pyrazin-2(1H)-yl)-2-((1-(4-methoxy-2,6-dimethylphenylsulfonyl)piperidin-2-yl)methoxy)ethanone]
98	102	COc1cc(C)c(S(=O)(=O)N2CCCCC2COCC(=O)N2CCn3cccc3C2c2cccs2)c(C)c1 (centres unmarked) [(29), 2-((1-(4-methoxy-2,6-dimethylphenylsulfonyl)piperidin-2-yl)methoxy)-1-(1-(thiophen-2-yl)-3,4-dihydropyrrolo[1,2-a]pyrazin-2(1H)-yl)ethanone]
98	58	COc1cc(C)c(S(=O)(=O)N2CCCCC2COCC(=O)N2CCn3cccc3C2c2cccc(C(F)(F)F)c2)c(C)c1 (centres unmarked) [(30), 2-((1-(4-methoxy-2,6-dimethylphenylsulfonyl)piperidin-2-yl)methoxy)-1-(1-(3-(trifluoromethyl)phenyl)-3,4-dihydropyrrolo[1,2-a]pyrazin-2(1H)-yl)ethanone]
98	96	COc1cccc(C2c3cccn3CCN2C(=O)COCC2CCCCN2S(=O)(=O)c2c(C)cc(OC)cc2C)c1 (centres unmarked) [(31), 2-((1-(4-methoxy-2,6-dimethylphenylsulfonyl)piperidin-2-yl)methoxy)-1-(1-(3-methoxyphenyl)-3,4-dihydropyrrolo[1,2-a]pyrazin-2(1H)-yl)ethanone]
